Cc1ncc([N+](=O)[O-])n1CCO
solubility (mole fraction)
Conditions | in chloroform | in ethanol | in ethyl acetate | in isopropanol | in methanol | in n-butanol | in water
293.15 K | 0.00128 | 0.00433 | 0.00299 | 0.00396 | 0.00641 | 0.00533 | 0.000872
297.55 K | 0.0016 | 0.00596 | 0.00395 | 0.00462 | 0.0076 | 0.00576 | –
298.45 K | – | – | – | – | – | – | 0.00104
302.55 K | 0.00226 | 0.00641 | 0.00495 | 0.00559 | 0.00925 | 0.00692 | –
306.95 K | – | – | – | – | – | – | 0.00146
307.55 K | 0.00288 | 0.00763 | 0.00605 | 0.00615 | 0.0112 | 0.00914 | –
308.65 K | – | – | – | – | – | – | 0.00152
312.35 K | 0.0036 | 0.00978 | 0.00713 | 0.00794 | 0.0138 | 0.0111 | –
313.15 K | – | – | – | – | – | – | 0.00181
317.85 K | 0.00418 | 0.0121 | 0.00887 | 0.0102 | 0.017 | 0.0132 | –
318.05 K | – | – | – | – | – | – | 0.00216
322.35 K | – | 0.0145 | 0.0121 | 0.0125 | 0.0201 | 0.0163 | –
322.95 K | – | – | – | – | – | – | 0.00265
